Assay results taken from US9370494B2, “Methods for treating hepatocellular carcinoma” (ABRAXIS BIOSCIENCE, LLC, priority 2010, dated 2016).

Legend:
[1] = system: hepatitis B-related HCC patients; conditions: advanced stage patients; placebo 4.2 months; cited from earlier work
[2] = system: Hep3B, SK-HEP1 and HKCl-9 HCC cell lines; test: MTT cell viability assay in HCC cell lines; assay type: cell-based; conditions: Homo sapiens; 48 h; range over the 3 cell lines Hep3B, SK-HEP1, HKCl-9
Procedure: Human liver cancer cell lines Hep3B and SK-HEP1 acquired from ATCC were cultured in Dulbecco's modified Eagle medium with Glutamax-1 (Gibco-BRL, Grand Island, N.Y., USA) supplemented with 10% fetal bovine serum. HKCl-9 (as described in Chan K.Y. Y. et al., Modern Pathology 19:1546-54 (2006)) was cultured in AIMV medium (Gibco-BRL) supplemented with 1% L-Glutamine and 10% fetal bovine serum. All cells were cultured under a humidified atmosphere of 5% CO2 at 37° C.

Hep3B cells = test: MTT cell viability assay after siRNA transfection (STMN1 knockdown); assay type: cell-based, human
Procedure: Cell viability was measured by MTT Assay. Cells grown in 96-well plates at density of 3000 cells per well were treated with drugs or siRNA transfection as indicated. […] The formazan formed was measured at 570 nm and cell viability is expressed as a percentage of maximum absorbance from 5 replicates in 3 independent experiments. The concentration of drug that inhibited cell survival by 50% (IC50) was determined from cell survival curves.
siRNA sequences included STMN1 siGENOME SMARTpool (si-STMN1) and siCONTROL Non-Targeting siRNA (si-mock). All siRNAs were chemically synthesized as double stranded RNA (Dharmacon) and introduced into cell lines by Lipofectamine 2000 (Invitrogen, Carlsbad, Calif., USA) according to manufacturer's instructions. Briefly, cells were incubated with 100 nM siRNA (si-STMN1 or si-mock). Six hours after transfection, medium was replaced by fresh growing medium. The expression of STMN1 was monitored by Western blot, which indicated a repressed expression for at least 3 days.

SK-HEP1/Luc+ xenograft = SK-HEP1/Luc+ xenograft model; conditions: 35 mmol/kg every two days for five times
Procedure: SK-HEP1 luciferase stable clone was prepared by transfecting SK-HEP1 cells with firefly luciferase expression vector and selected with 500 ug/ml Geneticin (Gibco-BRL) for 4 weeks. Individual colonies were screened for bioluminescence activity using the Xenogen IVIS® imager (Alameda, Calif., USA). Clones with stable luminescence expression were used for in-vivo studies.
Male BALB/c nude mice at 6-8 weeks old with an average body weight of about 20 g were anesthetized by intraperitoneal injection of ketamine hydrochloride (120 mg/kg) (Fort Dodge Animal Health, Fort Dodge, Iowa, USA) plus xylazine (6 mg/kg) (Phoenix Scientific, Inc., St. Joseph, Mo., USA). Anesthetized animals then received 5×10^6 SK-HEP1/Luc+ cells suspended in 200 μl serum free medium by subcutaneous injection below the dorsal flank. Drug treatments started on day 14 after tumor cells inoculation. […] All drugs were given every two days for five times, at a dose of 35 mmol/kg. See Desai N. et al., Clinical Cancer Research, 12:1317-24 (2006). Tumor growth was monitored twice weekly by in-vivo bioluminescent imaging and by external caliper measurements using the formula of [(Length×Width^2)/2] for 24 days. For in-vivo bioluminescent imaging, 150 mg/kg D-luciferin were given by intraperitoneal injection and ten minutes after luciferin injection, mice were anesthetized by isoflurane and tumor cell viability was measured by the Xenogen IVIS® imager.

HCC patients = conditions: British Journal of Cancer 1998; cited from earlier work
HCC cells = conditions: US Patent App. No. 2008/0045584; cited from earlier work

SMILES: CNC(=O)c1cc(Oc2ccc(NC(=O)Nc3ccc(Cl)c(C(F)(F)F)c3)cc2)ccn1 [Sorafenib]
- Median overall survival [1]: 6.5 months

SMILES: COc1cccc2c1C(=O)c1c(O)c3c(c(O)c1C2=O)C[C@@](O)(C(=O)CO)C[C@@H]3O[C@H]1C[C@H](N)[C@H](O)[C@H](C)O1 [Doxorubicin]
- IC50 [2]: 106 to 456 nM
- Fold more sensitive after STMN1 knockdown (si-STMN1 vs si-mock) (Hep3B cells): no effect
- Toxicity (weight loss, deaths) (SK-HEP1/Luc+ xenograft): particularly severe

SMILES: CC(=O)O[C@H]1C(=O)[C@@]2(C)[C@H]([C@H](OC(=O)c3ccccc3)[C@]3(O)C[C@H](OC(=O)[C@H](O)[C@@H](NC(=O)c4ccccc4)c4ccccc4)C(C)=C1C3(C)C)[C@]1(OC(C)=O)CO[C@@H]1C[C@@H]2O [Paclitaxel]
- Toxicity (weight loss, deaths) (SK-HEP1/Luc+ xenograft): particularly severe
- Anti-cancer effect in HCC patients (HCC patients): no significant anti-cancer effect

SMILES: CC(=O)O[C@@]12CO[C@@H]1C[C@H](O)[C@@]1(C)C(=O)[C@H](O)C3=C(C)[C@@H](OC(=O)[C@H](O)[C@@H](NC(=O)OC(C)(C)C)c4ccccc4)C[C@@](O)([C@@H](OC(=O)c4ccccc4)[C@H]21)C3(C)C [Docetaxel]
- Toxicity (weight loss, deaths) (SK-HEP1/Luc+ xenograft): particularly severe
- Activity against HCC cells relative to paclitaxel (HCC cells): more active against HCC cells than paclitaxel
